{
  "source": "paper PMC6712577",
  "about": "(Neuron, 2019)",
  "key": {"NAcC D2-MSNs [1]": {"test_system": "NAcC D2-MSNs", "assay": "electrically evoked EPSCs, whole-cell voltage clamp, NAcC D2-MSNs", "assay_type": "cell-based, mice", "settings": "for EPSC amplitude, %baseline (block of stimulation-induced LLP) / EPSC amplitude, %baseline (block of stimulation-induced potentiation) / EPSC amplitude, %baseline (block of substance-P-induced potentiation): mean ± SEM; for effect of antagonist alone on synaptic properties: absence of other stimuli, Figures S2C–S2F"}, "NAcC D2-MSNs [2]": {"test_system": "NAcC D2-MSNs", "assay": "paired pulse ratios, NAcC D2-MSNs", "assay_type": "cell-based, mice", "settings": "D1-MSN 50-Hz stimulation with inhibitor; Figures S7A–S7D"}, "[3]": {"test_system": "AMPAR currents on NAcC D2-MSNs", "assay": "AMPAR current-voltage relationship", "assay_type": "cell-based, mice", "settings": "+40 mV; for inward rectification of AMPAR currents caused by stimulation: D1-MSN 50-Hz stimulation with inhibitor, Figures 7B, 7D, 7F, 7H"}, "[4]": {"molecular_target": "neurokinin 1 receptor (NK1R) (Homo sapiens, UniProt P25103)", "sequence (P25103 whole entry, species assumed)": "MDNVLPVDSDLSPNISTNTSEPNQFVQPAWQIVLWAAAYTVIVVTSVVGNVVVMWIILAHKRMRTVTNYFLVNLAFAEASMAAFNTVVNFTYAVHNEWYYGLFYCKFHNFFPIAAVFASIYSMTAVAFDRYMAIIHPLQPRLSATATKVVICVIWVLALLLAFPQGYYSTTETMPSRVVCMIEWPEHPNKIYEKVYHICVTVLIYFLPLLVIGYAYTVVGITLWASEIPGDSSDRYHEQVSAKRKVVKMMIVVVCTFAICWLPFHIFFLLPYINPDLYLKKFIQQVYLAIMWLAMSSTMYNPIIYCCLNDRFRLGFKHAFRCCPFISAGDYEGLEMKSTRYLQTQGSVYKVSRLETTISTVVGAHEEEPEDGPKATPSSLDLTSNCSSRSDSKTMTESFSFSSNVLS", "sequence (P50148 whole entry partner, species assumed)": "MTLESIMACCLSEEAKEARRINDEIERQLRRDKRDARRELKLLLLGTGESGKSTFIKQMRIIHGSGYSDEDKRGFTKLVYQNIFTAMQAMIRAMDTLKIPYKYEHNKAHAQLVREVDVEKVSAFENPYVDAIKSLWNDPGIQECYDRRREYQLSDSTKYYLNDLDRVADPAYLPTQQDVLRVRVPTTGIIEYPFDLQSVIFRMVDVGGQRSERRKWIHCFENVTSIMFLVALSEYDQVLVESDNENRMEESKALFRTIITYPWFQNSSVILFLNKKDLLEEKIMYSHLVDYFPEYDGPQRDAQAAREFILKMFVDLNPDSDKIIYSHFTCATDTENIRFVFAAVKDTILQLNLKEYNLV", "assay": "BRET assay, antagonist mode", "assay_type": "biochemical", "settings": "antagonist added 15 min before 100 nM substance P, Figure S4G"}, "NAcC ChAT neurons": {"test_system": "NAcC ChAT neurons", "assay": "ChAT neuron firing rate", "assay_type": "cell-based, mice", "settings": "for spontaneous ChAT firing rate in the absence of substance P: L-733,060 10 μM or aprepitant 1 μM, Figure S4I; for stimulation-enhanced ChAT firing rate: 50-Hz D1-MSN stimulation; for substance-P-enhanced ChAT firing rate: substance P 100 nM"}, "NAcS D2-MSNs": {"test_system": "NAcS D2-MSNs", "assay": "electrically evoked EPSCs, whole-cell voltage clamp, NAcS D2-MSNs", "assay_type": "cell-based, mice", "settings": "D1-MSN 50-Hz stimulation"}},
  "data": [
    {"compound": "CC(=O)C1=C(O)[C@@H]2[C@H]3c4c[nH]c5cccc(c45)C[C@H]3C(C)(C)N2C1=O", "note": "[CPA, cyclopiazonic acid]", "values": [
      {"measurement": "EPSC amplitude, %baseline (block of stimulation-induced LLP)", "setting": "NAcC D2-MSNs [1]; CPA, depletion of calcium stores, D1-MSN 50-Hz stimulation, n = 8, p > 0.05, Figure 7G", "result": "80.18% ± 7.07%"},
      {"measurement": "paired pulse ratio change after stimulation", "setting": "NAcC D2-MSNs [2]", "result": "significantly increased"},
      {"measurement": "inward rectification of AMPAR currents caused by stimulation", "setting": "[3]", "result": "prevented inward rectification"}
    ]},
    {"compound": "C[C@@H](O[C@H]1OCCN(Cc2n[nH]c(=O)[nH]2)[C@H]1c1ccc(F)cc1)c1cc(C(F)(F)F)cc(C(F)(F)F)c1", "note": "[aprepitant]", "values": [
      {"measurement": "concentration of maximal inhibition of receptor activity", "setting": "[4]", "result": "~10", "unit": "µM"},
      {"measurement": "effect of antagonist alone on synaptic properties", "setting": "NAcC D2-MSNs [1]", "result": "neither L-733,060 nor aprepitant altered synaptic properties"},
      {"measurement": "EPSC amplitude, %baseline (block of stimulation-induced potentiation)", "setting": "NAcC D2-MSNs [1]; aprepitant 1 μM, single 5-s, 50-Hz train of D1-MSN stimulation, n = 8, p > 0.05, Figure 2G", "result": "98.02% ± 10.73%"},
      {"measurement": "spontaneous ChAT firing rate in the absence of substance P", "setting": "NAcC ChAT neurons", "result": "did not have effects on spontaneous ChAT firing rate"},
      {"measurement": "stimulation-enhanced ChAT firing rate", "setting": "NAcC ChAT neurons; aprepitant 1 μM, n = 13, p > 0.05, Figure 5B", "result": "suppressed, but not completely blocked"},
      {"measurement": "substance-P-enhanced ChAT firing rate", "setting": "NAcC ChAT neurons; aprepitant 1 μM, Figure S4H", "result": "suppressed"}
    ]},
    {"compound": "COc1ccc2c(c1)CC[C@@H]1[C@@H]2CC[C@]2(C)[C@@H](NCCCCCCN3C(=O)C=CC3=O)CC[C@@H]12", "note": "[U-73122]", "values": [
      {"measurement": "EPSC amplitude, %baseline (block of stimulation-induced LLP)", "setting": "NAcC D2-MSNs [1]; U-73122 3 μM, D1-MSN 50-Hz stimulation, n = 9, p < 0.05, Figure 7C", "result": "66.06% ± 8.70%"},
      {"measurement": "paired pulse ratio change after stimulation", "setting": "NAcC D2-MSNs [2]", "result": "significantly increased"},
      {"measurement": "inward rectification of AMPAR currents caused by stimulation", "setting": "[3]", "result": "prevented inward rectification"}
    ]},
    {"compound": "CN1CCN(CC(=O)N2c3ccccc3C(=O)Nc3cccnc32)CC1", "note": "[pirenzepine]", "values": [
      {"measurement": "EPSC amplitude, %baseline (block of substance-P-induced potentiation)", "setting": "NAcC D2-MSNs [1]; pirenzepine 1 μM, substance P 100 nM, Figures 6A, S6B", "result": "103.1% ± 12.95%"},
      {"measurement": "EPSC amplitude, %baseline (block of substance-P-induced potentiation)", "setting": "NAcC D2-MSNs [1]; pirenzepine 1 μM, substance P 1 μM, Figures 6A, S6B", "result": "89.88% ± 9.14%"},
      {"measurement": "synaptic properties in D2-MSNs", "setting": "NAcC D2-MSNs [1]; pirenzepine alone, Figure S6E", "result": "did not affect synaptic properties"},
      {"measurement": "ChAT firing rate at baseline and its enhancement due to substance P", "setting": "NAcC ChAT neurons; pirenzepine, Figures S6C, S6D", "result": "neither affected ChAT firing rate at baseline nor the enhancement in firing frequency due to substance P"},
      {"measurement": "AMPAR inward rectification caused by substance P or 50 Hz stimulation", "setting": "[3]; pirenzepine, Figures 6C, 6D", "result": "prevented this rectification"}
    ]},
    {"compound": "Oc1ccc2c3c1O[C@H]1c4[nH]c5c(c4C[C@@]4(O)[C@@H](C2)N(CC2CC2)CC[C@]314)C[C@@]1(O)[C@H]2Cc3ccc(O)c4c3[C@@]1(CCN2CC1CC1)[C@H]5O4", "note": "[norbinaltorphimine]", "values": [
      {"measurement": "EPSC amplitude, %baseline (stimulation-induced depression)", "setting": "NAcS D2-MSNs; norbinaltorphimine 400 nM, mean ± SEM, Figure S1H", "result": "61.56% ± 10.78%"}
    ]},
    {"compound": "Cl.FC(F)(F)c1cc(CO[C@H]2CCCN[C@H]2c2ccccc2)cc(C(F)(F)F)c1", "note": "[L-733,060]", "values": [
      {"measurement": "concentration of maximal inhibition of receptor activity", "setting": "[4]", "result": "~10", "unit": "µM"},
      {"measurement": "EPSC amplitude, %baseline (block of substance-P-induced potentiation)", "setting": "NAcC D2-MSNs [1]; L-733,060 10 μM with substance P bath application, n = 9, p > 0.05, Figure 2B", "result": "101.1% ±7.07%"},
      {"measurement": "EPSC amplitude, %baseline (block of stimulation-induced potentiation)", "setting": "NAcC D2-MSNs [1]; L-733,060, 5 min of NAcC D1-MSN 50-Hz stimulation, transient depression, Figure S2B", "result": "79.52% ± 8.22%"},
      {"measurement": "effect of antagonist alone on synaptic properties", "setting": "NAcC D2-MSNs [1]", "result": "neither L-733,060 nor aprepitant altered synaptic properties"},
      {"measurement": "spontaneous ChAT firing rate in the absence of substance P", "setting": "NAcC ChAT neurons", "result": "did not have effects on spontaneous ChAT firing rate"},
      {"measurement": "stimulation-enhanced ChAT firing rate", "setting": "NAcC ChAT neurons; L-733,060 10 μM, Figure S5C", "result": "blocked"},
      {"measurement": "substance-P-enhanced ChAT firing rate", "setting": "NAcC ChAT neurons; L-733,060 10 μM, Figures 4F, 4G", "result": "suppressed"},
      {"measurement": "concentration of maximal inhibition of enhanced ChAT firing", "setting": "NAcC ChAT neurons; against 100 nM substance P, Figure 4E", "result": 10, "unit": "µM"}
    ]},
    {"compound": "CC[N+](CC)(CCNC(=O)C(=O)NCC[N+](CC)(CC)Cc1ccccc1Cl)Cc1ccccc1Cl", "note": "[ambenonium]", "values": [
      {"measurement": "stimulation-induced depression on NAcS D2-MSNs", "setting": "NAcS D2-MSNs; ambenonium 40 nM (acetylcholinesterase block), Figure S6G", "result": "did not alleviate the depression"}
    ]},
    {"compound": "picrotoxin", "values": [
      {"measurement": "increase in baseline ChAT firing frequency", "setting": "NAcC ChAT neurons; picrotoxin, on average, Figure S5F", "result": "1.37 ± 0.66", "unit": "Hz"}
    ]},
    {"compound": "O=C(O)CN(CC(=O)O)c1ccccc1OCCOc1ccccc1N(CC(=O)O)CC(=O)O", "note": "[BAPTA, 1,2-bis(o-aminophenoxy)ethane-N,N,N′,N′-tetra-acetic acid]", "values": [
      {"measurement": "cells potentiated", "setting": "NAcC D2-MSNs [1]; BAPTA 10 mM internal, D1-MSN 50-Hz stimulation, Figure 7E", "result": "3/9"},
      {"measurement": "paired pulse ratio change after stimulation", "setting": "NAcC D2-MSNs [2]", "result": "lack of ability to detect a change in PPR"}
    ]},
    {"compound": "CC[C@H](NC(=O)c1c(C)c(-c2ccccc2)nc2ccccc12)c1ccccc1", "note": "[SB-2220]", "values": [
      {"measurement": "substance-P-enhanced ChAT firing rate, further block", "setting": "NAcC ChAT neurons; addition of 1 μM NK3R antagonist SB-2220, Figure S4J", "result": "not blocked any further"}
    ]}
  ]
}
